Assay results: patent publication US6485755B1, “Methods of using electron active compounds for managing cancer” (Marantech Holding, priority 2000, dated 2002)
Like-named read-outs stand apart in the source and are kept apart here.

Columns and labels:
[1] = persons not prone to silver allergies
Source text: Preferred routes of administration include topically and application to mucosa. Application can be made, for example, digitally or using a suitable applicator.

breast cancer = tested on: breast cancer
Protocol: A subject group was formed of thirty female residents of Central America aged 32 to 52 years who had been diagnosed as having breast cancer. […] The diagnosis of each subject was confirmed by biopsy and a mammogram was acquired from each subject.
Each subject was evaluated daily by an oncologist(s) and each received a single dosage of tetrasilver tetroxide by IV, i.e., intravenously, sufficient to provide a concentration in the bloodstream of 10 ppm. One-half of the patients received the dosage in 10 minutes by IV injection. The other half of the subjects received the dosage by IV injection over a 4-hour period.
As discussed below, the subjects were arranged in three histology groups. Within each histologic group, 50% of the subjects received the dosage via the 10 minute IV and the other 50% of the subjects received the dosage over the 4 hour period of time.
Prior to initiating treatment, the tetrasilver tetroxide was subjected a quality assurance protocol to reduce side effects.
Group I: Group I included 10 patients who had been diagnosed as having infiltrative canalicular breast carcinoma.
A 1 cm diameter biopsy fragment was sent to a pathologist laboratory.
Group II: Group II included 10 subjects were diagnosed as having ductile carcinoma special type, medular breast cancer.
Group III: Group III included ten patients diagnosed as having infiltrative lobular breast cancer.
For each of the three groups, the dosage was 10 ppm for every subject. The patients had 24-hour evaluations by three oncologists who were each responsible for an 8-hour time period. Every 4 hours, a professional nurse acquired vital signs from the subjects. Twenty-four hour hemodynamic monitoring was performed. The subjects walked 2 hours after they received the dosage and they were prescribed a free diet. Every twenty-four hours, urine was collected. Every seven days, the following laboratory tests were performed: a complete blood count, hemoglobin, hematocracity, vcm, vhcm, complete red blood cells, complete white blood cells, albumin, bilirubin, calcium, and cholesterol, creatine, glucose, ldh, potassium, sodium, triglyceride, uric acid, urea nitrogen, AST and SGOT.

A498 = details: A498, estimated
Protocol: (§1) An independent laboratory performed cytotoxicity tumor cell proliferation studies and evaluations. A culture of leukemia K562 was tested in vitro against media concentrations of tetrasilver tetroxide at: 0.5, 1,5, 10, 50, 100, 500 and 1000 ppm.
(§2) The tetroxide was dispersed in pure dimethyl sulfoxide and then diluted with Holipharm NPS buffer PH=7.4 (Holipharm International Co., Wilmington, Del.) in culture media to achieve the aforesaid final assay concentrations. The acronym NPS refers to non phosphate non saline. The culture media comprised RPMI 1640, 90% and fetal bovine serum, 10%. The cancer cultures were obtained from a cell line provided by the American Type Culture Collection (ATCC) and were incubated at 37° C. with 5% CO2 in air atmosphere. The culture was a human chronic myelogenous leukemia, of cell line source ATCCCCL-243.
(§3) As for the actual evaluation, cell proliferation analysis was based on the ability of viable cells to cause alamar blue to change from oxidized (non-fluorescent, blue) to reduced (fluorescent, red) form. Details of the procedure are described in an article by S. Ansar Ahmed et. al. in the Journal of Immunological Methods 170 (1994).
(§4) The ^aIC50 (50% Inhibition Concentration) is the test compound concentration where the increase from times in the number or mass of treated cells was only 50% as much as the corresponding increase in the vehicle-control at the end of experiment. The bTGI (Total Growth Inhibition) is the test compound concentration where the number or mass of treated cells at the end of experiment was equal to that at time. The CLC (50% Lethal Concentration) is the test compound concentration where the number or mass of treated cells at the end of experiment was half that at time.

A549 = details: A549, estimated
Protocol: as §1, §2, §3, §4

DLD-i = details: estimated
Protocol: as §1, §2, §3, §4

H33HJ-.JA1 = details: H33HJ-.JA1, estimated
Protocol: as §1, §2, §3, §4

HL-60 = details: HL-60, estimated
Protocol: as §1, §2, §3, §4

HeDG2 = details: HeDG2, estimated
Protocol: as §1, §2, §3, §4

KATO III = details: estimated
Protocol: as §1, §2, §3, §4

MCF-7 = details: MCF-7, estimated
Protocol: as §1, §2, §3, §4

MIA PaCa2 = details: MIA PaCa2, estimated
Protocol: as §1, §2, §3, §4

PANC-i = details: estimated
Protocol: as §1, §2, §3, §4

PC-3 = details: PC-3, estimated
Protocol: as §1, §2, §3, §4

T47D = details: estimated
Protocol: as §1, §2, §3, §4

U937 = details: U937, estimated
Protocol: as §1, §2, §3, §4

[2] = tested on: human malignant melanoma cell line SK-MEL-5
Protocol: as §1, §2, §3, §4

leukemia K562 = tested on: leukemia K562
Protocol: as §1, §2, §3, §4

pc-6 = details: pc-6, estimated
Protocol: as §1, §2, §3, §4

[3] = tested on: gynecological yeast infection; details: 10 ppm silver tetroxide and 40 ppm sodium persulfate; cited from earlier work
athlete's foot = details: solution of 100 ppm of the composition; cited from earlier work
toenail fungus = details: 25% suspension of the composition; cited from earlier work
[4] = single IV injection at about 40 ppm of human blood; cited from earlier work
[5] = compared with Ag(I) compounds; cited from earlier work
[6] = Group III, day 20 after treatment

[Ag+].[Ag+].[Ag+].[Ag+].[O-2].[O-2].[O-2].[O-2] [tetrasilver tetroxide]
ill effects or irritation on application to the skin [1]: without any ill effects or evidence of irritation | sodium, potassium and magnesium blood levels (breast cancer; Group I): decreased | nodule on palpation (breast cancer; Group I infiltrative canalicular breast carcinoma, single IV dose 10 ppm in bloodstream, 12 days after treatment): the nodule was no longer discernable by touch | patients with increase in body temperature and slight liver enlargement (breast cancer; Group I, 10 minute IV injection subgroup): Three of the patients | biopsies reported as normal mammary tissue (breast cancer; Group I, biopsy ordered 19 days after treatment): 100% | liver function (breast cancer; Group I, patients with liver enlargement): not affected | liver function (breast cancer; Group II): not affected | sodium, potassium and magnesium blood levels (breast cancer; Group II): decreased | average tumor size (breast cancer; Group II medular breast cancer, 36 hours after treatment, formerly 10 cm): 8.4 cm | biopsy reported as normal mammary tissue (breast cancer; Group II, biopsy after 24 days): 90% | tumor mass (breast cancer; Group II, day 16 after treatment): the huge tumor mass was gone | patients with increase in body temperature and slight liver enlargement (breast cancer; Group II, direct IV injection subgroup): One patient | sodium, potassium and magnesium blood levels (breast cancer; Group III): deceased | average nodule size (breast cancer; Group III infiltrative lobular breast cancer, 5 days after treatment, from 4 cm): 2.6 cm | biopsies reported as normal mammary tissue (breast cancer; Group III, biopsy ordered day 29 after treatment): 80% | average nodule size (breast cancer; [6]): 1 cm | remission of retracted nipples, nipple bleeding, distorted areola, mass attachment (breast cancer; [6]): 90% | patients with increase in body temperature or slight liver enlargement (breast cancer; Group III, direct injection subgroup): None of the patients | period to apparent cure (breast cancer; ductile carcinoma special type, medular breast carcinoma (Group II)): 30 days | period to apparent cure (breast cancer; infiltrative breast carcinoma (Group I)): 24 days | period to apparent cure (breast cancer; infiltrative lobular breast cancer (Group III)): 30 days | IC50 (A498): 1.8 ppm | LC50 (A498): 3.1 ppm | TGI (A498): 2.4 ppm | IC50 (A549): 4.8 ppm | LC50 (A549): 7.0 ppm | TGI (A549): 5.8 ppm | IC50 (DLD-i): 2.5 ppm | LC50 (DLD-i): 3.6 ppm | TGI (DLD-i): 3.0 ppm | IC50 (H33HJ-.JA1): 0.79 ppm | LC50 (H33HJ-.JA1): 3.8 ppm | TGI (H33HJ-.JA1): 1.3 ppm | IC50 (HL-60): 2.1 ppm | LC50 (HL-60): 4.6 ppm | TGI (HL-60): 3.1 ppm | IC50 (HeDG2): 2.6 ppm | LC50 (HeDG2): 4.7 ppm | TGI (HeDG2): 3.5 ppm | IC50 (KATO III): 3.2 ppm | LC50 (KATO III): 4.1 ppm | TGI (KATO III): 3.6 ppm | IC50 (MCF-7): 3.0 ppm | LC50 (MCF-7): 5.0 ppm | TGI (MCF-7): 3.9 ppm | IC50 (MIA PaCa2): 2.0 ppm | LC50 (MIA PaCa2): 8.1 ppm | TGI (MIA PaCa2): 4.0 ppm | IC50 (PANC-i): 4.8 ppm | LC50 (PANC-i): 8.6 ppm | TGI (PANC-i): 6.4 ppm | IC50 (PC-3): 7.7 ppm | LC50 (PC-3): 25 ppm | TGI (PC-3): 14 ppm | IC50 (T47D): 1.1 ppm | LC50 (T47D): 2.6 ppm | TGI (T47D): 1.6 ppm | IC50 (U937): 1.3 ppm | LC50 (U937): 3.6 ppm | TGI (U937): 2.2 ppm | IC50 (50% Inhibition Concentration) [2]: 3.7 ppm | LC50 (50% Lethal Concentration) [2]: 6.5 ppm | TGI (Total Growth Inhibition) [2]: 4.9 ppm | IC50 (50% Inhibition Concentration) (leukemia K562): 2.2 ppm | LC50 (50% Lethal Concentration) (leukemia K562): 6.0 ppm | TGI (Total Growth Inhibition) (leukemia K562): 4.6 ppm | IC50 (pc-6): 0.9 ppm | LC50 (pc-6): 1.1 ppm | TGI (pc-6): 1.0 ppm | outcome of gynecological yeast infection [3]: curing | outcome of athlete's foot, single case (athlete's foot): cure | outcome of toenail fungus, single case (toenail fungus): cure | adverse effect on the liver [4]: hepatomegaly | liver function [4]: no reported loss of liver function | staining of organic matter such as skin [5]: did not stain organic matter such as skin
